Experimental data as given in patent US9572833B2, “Treatment of red blood cells” (The General Hospital Corporation, priority 2011, dated 2017).
Blank lines part the entries; values can stand above or below the compound they belong to.

What was measured:
NOS = test: Partial inhibition of NOS by L-NAME in lambs (acetylcholine / sodium nitroprusside vasodilation, hemodynamics); format: in vivo
Procedure: (§1) Three additional groups of lambs were studied after intravenous infusion of the NOS inhibitor, N^G-nitro-L-arginine methyl-ester (L-NAME, Sigma-Aldrich, St. Louis, Mo.). A bolus of 25 mg/kg L-NAME was injected IV 1 h before transfusion (Weimann et al., Anesthesiology 2000; 92:1702-12). Concomitantly, an infusion of 5 mg/kg/h L-NAME was started and continued throughout the study. […] NOS-independent systemic vasodilation was also assessed by intravenous injection of sodium nitroprusside (Sigma-Aldrich) at the end of each experiment.

[1] = Hemodynamic effects of PRBC transfusion in awake lambs; format: in vivo; conditions: 80 ppm during transfusion and 30 min thereafter, no L-NAME
Procedure: (§2) Invasive hemodynamic measurements were performed in 28 lambs. Anesthesia was induced by breathing 5% isoflurane (Baxter, Deerfield, Ill.) in oxygen via mask. After endotracheal intubation, animals underwent a tracheostomy and were instrumented with indwelling carotid artery and pulmonary artery catheters, as previously described (Yu et al., Anesthesiology 2010; 112:586-94). After a 2-h recovery period from general anesthesia in a large-animal restraint unit (Lomir, Malone, N.Y.), the mean arterial pressure (MAP), mean pulmonary arterial pressure (PAP), and central venous pressure were monitored continuously using a Gould 6600 amplifier system (Gould Electronics, Inc., Eastlake, Ohio). Pulmonary capillary wedge pressure (PCWP) and heart rate were intermittently measured every 10-30 min. Cardiac output was assessed by thermal dilution as the average of three measurements after intravenous bolus-injection of 10 ml ice-cold saline solution. Systemic vascular resistance index and pulmonary vascular resistance index (PVRI), as well as cardiac index, were calculated using standard formulae. Hemodynamic data was collected until 4 h after the end of transfusion.
Six groups of awake lambs were studied. […]

[2] = Non-invasive measurement of systolic blood pressure in awake mice after transfusion; format: in vivo; conditions: awake db/db mice; 80 ppm from 10 min prior to transfusion until 2 h after
Procedure: Systolic blood pressure was measured with a non-invasive blood pressure system (XBP 1000, Kent Scientific, Torrington, Conn.) (Yu et al., Circulation 2008; 117: 1982-90; Yu et al., Anesthesiology 2010; 112: 586-94). All tail vein injections were performed over one minute.

human hemoglobin = biological target: T1, human hemoglobin (Homo sapiens, UniProt P68871+P69905); test: Methemoglobin conversion after nitric oxide gas treatment of red blood cells via membrane gas exchanger; format: biochemical; conditions: 2600 ppm nitric oxide in nitrogen, single pass
T1 construct: from tissue; host or cells: human red blood cells (adsol-preserved) plus plasma with added human hemoglobin
T1 sequence (P69905 2-142 limits assumed): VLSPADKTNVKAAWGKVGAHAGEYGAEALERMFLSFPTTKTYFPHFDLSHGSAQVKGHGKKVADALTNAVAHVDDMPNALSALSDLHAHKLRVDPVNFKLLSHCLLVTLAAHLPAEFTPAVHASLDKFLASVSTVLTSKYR
T1 sequence (P68871 2-147 limits assumed): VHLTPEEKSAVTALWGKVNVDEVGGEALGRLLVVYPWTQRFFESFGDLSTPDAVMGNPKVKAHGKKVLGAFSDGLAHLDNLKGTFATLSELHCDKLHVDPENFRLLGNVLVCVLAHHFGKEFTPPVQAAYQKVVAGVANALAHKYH
Procedure: Plasma containing added human hemoglobin was added to adsol-preserved human red blood cells. The red blood cells were pumped (at flow rates of 5, 7.5, and 10 ml/min) through a membrane gas exchanger (Living Systems instrumentation Inc., St. Albans, Vt.), which exposed the cells (on a single pass through the gas exchanger) to 2600 ppm nitric oxide gas in nitrogen.

[3] = Hemodynamic effects of PRBC transfusion in lamb model of L-NAME-induced endothelial dysfunction; format: in vivo; conditions: lambs pretreated with L-NAME
Procedure: as §2, §1
After L-NAME treatment, a fourth group of lambs (n=4) received fresh PRBCs, and a fifth group (n=5) received stored PRBCs. In the sixth group (n=4), following L-NAME injection, inhalation of 80 ppm nitric oxide at FiO2 0.25 was commenced 10 min prior to transfusion of stored PRBC. Nitric oxide breathing continued throughout the transfusion and for 30 min after transfusion ended.

supernatant hemoglobin [4] = biological target: T2, supernatant hemoglobin (Homo sapiens, UniProt P68871+P69905); test: MAHMA/NO treatment of human stored red blood cells; format: biochemical; conditions: human RBC stored 46 days
T2 construct: 99% of the supernatant hemoglobin being oxidized to methemoglobin; from tissue; host or cells: human stored red blood cells (46 days), supernatant and cells
T2 sequence (P69905 2-142 limits assumed): as the sequence (P69905 2-142 limits assumed) above
T2 sequence (P68871 2-147 limits assumed): as the sequence (P68871 2-147 limits assumed) above
Procedure: Human stored red blood cells (stored, 46 days) were treated with MAHMA/NO ((Z)-1-[N-Methyl-N-[6-(N-methylammoniohexyl)amino]]diazen-1-ium-1,2-diolate). […] In contrast, only 15% of the red blood cell hemoglobin was oxidized by this treatment (FIG. 14A).

supernatant hemoglobin [5] = biological target: T3, supernatant hemoglobin (Mus musculus, UniProt P01942+P02088); test: MAHMA/NO treatment of murine stored red blood cells; format: biochemical; conditions: murine RBC stored 14 days
T3 construct: from tissue; host or cells: murine stored red blood cells (14 days), supernatant
T3 sequence (P01942 2-142 limits assumed): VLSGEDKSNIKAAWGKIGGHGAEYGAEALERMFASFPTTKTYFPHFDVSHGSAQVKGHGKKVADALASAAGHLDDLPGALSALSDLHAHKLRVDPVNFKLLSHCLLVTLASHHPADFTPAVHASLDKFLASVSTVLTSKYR
T3 sequence (P02088 2-147 limits assumed): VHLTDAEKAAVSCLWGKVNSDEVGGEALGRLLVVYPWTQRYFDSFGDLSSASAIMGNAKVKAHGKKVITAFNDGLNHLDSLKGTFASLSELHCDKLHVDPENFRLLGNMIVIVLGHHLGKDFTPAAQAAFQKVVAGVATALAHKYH
Source text: This is likely due to the higher levels of hemolysis observed in murine red blood cell storage. At baseline levels, hemolysis is higher than in human stored red blood cells, and increasing concentrations of MAHMA/NO were required to fully oxidize the […] hemoglobin.

[6] = Tail-cuff systolic blood pressure in db/db mice after infusion of MAHMA/NO pre-treated stored red blood cells; format: in vivo; conditions: SRBC pre-treated with 1 mM MAHMA/NO; awake db/db mice
Procedure: Murine stored red blood cells were pretreated with 1 mM MAHMA before infusion into db/db mice.

[7] = 25 mg/kg IV bolus plus 5 mg/kg/h infusion

Structure (SMILES): COC(=O)[C@@H](N)CCCNC(=N)N[N+](=O)[O-] [L-NAME, N^G-nitro-L-arginine methyl-ester]
- Reduction in the ability of acetylcholine infusion to induce systemic vasodilation (NOS; [7]): 50%
- Vasodilator response to intravenous bolus of sodium nitroprusside (NOS; [7]): did not alter the vasodilator response
- Cardiac index and heart rate after L-NAME infusion (NOS; awake lambs): decreased
- MAP, PAP, central venous pressure, PCWP, systemic and pulmonary vascular resistance indices after L-NAME infusion (NOS; awake lambs): increased

Structure (SMILES): [N]=O [nitric oxide]
- PAP with transfusion of stored PRBCs while breathing nitric oxide ([1]; baseline 12±1): 13±1 mmHg
- PVRI with transfusion of stored PRBCs while breathing nitric oxide ([1]; baseline 107±14): 105±22 dyn·sec·cm^−5·m^−2
- Effect of breathing nitric oxide on systemic hypertension induced by SRBC transfusion [2]: completely prevented the systemic hypertension
- Human red cell hemoglobin converted to methemoglobin (human hemoglobin): only a few percent
- Supernatant oxyhemoglobin converted to methemoglobin (human hemoglobin; flow 5, 7.5, 10 ml/min, adsol-preserved human RBC): approximately 50%
- Effect of inhalation of nitric oxide on MAP ([3]; 80 ppm): did not alter MAP
- Effect of concurrent inhalation of nitric oxide on PAP and PVRI ([3]; 80 ppm, stored PRBC transfusion): reduced the PAP and PVRI to baseline
- Time after end of nitric oxide breathing at which PAP and PVRI returned to pre-transfusion levels [3]: 60 min

- Red blood cell hemoglobin oxidized (supernatant hemoglobin [4]; 0.5 mM): 15%
- Supernatant hemoglobin oxidized to methemoglobin (supernatant hemoglobin [4]; 0.5 mM): 99%
- Supernatant methemoglobin (supernatant hemoglobin [5]; 1 mM): 70%
- Level of cell-free hemoglobin in the supernatant (supernatant hemoglobin [5]): decreases upon addition of MAHMA/NO
Structure (SMILES): CNCCCCCCN(C)/[N+]([O-])=N/O [MAHMA/NO, (Z)-1-[N-Methyl-N-[6-(N-methylammoniohexyl)amino]]diazen-1-ium-1,2-diolate]
- Hemolysis after addition of MAHMA/NO (supernatant hemoglobin [4]): no further hemolysis
- Hypertensive effect caused by infusion of stored red blood cells [6]: attenuated the hypertensive effect
